Where two headings read alike, the source gives them in different places. A value given as a limit tells only on which side of the number the result lay.

Assay [1] relates to NS5A chimeric genotype 2a JFH-1 replicon with genotype 2b MD2b-1 strain NS5A gene (M31 present). Put plainly: Replicon assay, genotype 2b NS5A chimera. It is filed as cell-based, HCV. Particulars: Hepatitis C virus. An outline of the steps: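 EC50 was fitted by non-linear regression to Renilla luciferase signal after 72 h of exposure to 3-fold serially diluted compound (10 mM DMSO stocks). Controls were DMSO (none) and ITMN-191 above 100×EC50 (full). Chimeric 2a replicons were used either stable or transiently transfected into Huh-Lunet cells.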
On the technique in general: Replicon systems follow genome replication, usually without infectious particles.

Assay [2] relates to NS5A chimeric genotype 1b Con1 replicon with genotype 3a S52 strain NS5A gene. Put plainly: Replicon assay, genotype 3a NS5A chimera. It is filed as cell-based, HCV. To be noted: Hepatitis C virus.
For assay [3], the system named is NS5A chimeric genotype 2a JFH-1 replicon with genotype 2a J6 strain NS5A gene (M31 present). Put plainly: Replicon assay, genotype 2a J6 NS5A chimera. The assay is classed as cell-based, HCV. To be noted: Hepatitis C virus. An outline of the steps:
(§1)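 72 h compound exposure (3-fold dilutions from 10 mM DMSO stocks) of replicon cells: stable dicistronic RLuc 1a H77, 1b Con1, 2a JFH-1 (NS5A L31); J6-NS5A chimera in JFH-1 (M31), transient in Huh-Lunet or stable. Renilla luciferase read-out, non-linear regression → EC50. DMSO negative control.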

Assay [4] concerns stable HCV 1b RLuc replicon cells (dicistronic genotype 1b Con1 replicon). The experiment in a line: Renilla luciferase HCV replicon reporter assay, genotype 1b. It is filed as cell-based. Particulars: Hepatitis C virus, 72 h, stable 1b Con1 RLuc replicon cells, 72 hours; read-out: 1b. An outline of the steps:
as §1

For assay [5], the system named is stable HCV 1a RLuc replicon cells (dicistronic genotype 1a H77 replicon). The experiment in a line: Renilla luciferase HCV replicon reporter assay, genotype 1a. To be noted: Hepatitis C virus, 72 h, stable 1a H77 RLuc replicon cells. It is filed as cell-based. Summed up:
as §1

For assay [6], the system named is NS5A chimeric genotype 1b Con1 replicon with genotype 4a ED43 strain NS5A gene. Put plainly: Replicon assay, genotype 4a NS5A chimera. Particulars: Hepatitis C virus. It is filed as cell-based, HCV.
In assay [7] the test system is stable HCV 2a JFH-1 Rluc replicon cells (L31 present in NS5A). The experiment in a line: Renilla luciferase HCV replicon reporter assay, genotype 2a JFH-1. The assay is classed as cell-based. To be noted: Hepatitis C virus. Summed up: as §1
Setting [8] is: 2BS, read-out: 2b (s), stably replicating replicon cells (s), activity range.
Setting [9] is: read-out: 2b (s) (nM), genotype 2b MD2b-1 NS5A chimeric replicon (M31), stably replicating replicon cells (s).
Where [10] appears, read: read-out: 3a (s) (nM), genotype 3a NS5A chimeric replicon, stable replicon cells (s).
Setting [11] is: read-out: 3a (s), (s), activity range.
[12] abbreviates: read-out: 2a J6 (t) (nM), genotype 2a J6 NS5A chimeric replicon (M31), transiently transfected (t) into Huh-Lunet cells.
[13] abbreviates: read-out: 2a J6 (t), transiently transfected (t) into Huh-Lunet cells, activity range.
Where [14] appears, read: read-out: 4a (s) (nM), genotype 4a NS5A chimeric replicon, stable replicon cells (s).
Setting [15] is: read-out: 4a (s), (s), activity range.
Where [16] appears, read: read-out: 2a JFH (nM), genotype 2a JFH-1 replicon (L31 in NS5A), stable cells.
Setting [17] is: read-out: 2a JFH, stable 2a JFH-1 Rluc replicon cells, L31 in NS5A, activity range.

On to `COC(=O)N[C@H](C(=O)N1C[C@@H](C)C[C@H]1c1nc2ccc3cc4c(cc3c2[nH]1)OCc1cc(-c2cnc([C@@H]3CC[C@H](C)N3C(=O)[C@@H](NC(=O)OC)C(C)(C)C)[nH]2)ccc1-4)C(C)C` [HX], for which the EC50 is 1 to 44 nM in assay [1] (setting [8]); 2.92 nM in assay [1] (setting [9]); 0.266 nM in assay [2] (setting [10]); 0.1 to 0.999 nM in assay [2] (setting [11]); 3.28 nM in assay [3] (setting [12]); 1 to 44 nM in assay [3] (setting [13]). Also, the EC50 in assay [4] was 0.02 nM; in assay [5], 0.011 nM; in assay [5] (activity range) it was below 0.1 nM; in assay [6] (setting [14]), 0.014 nM; in assay [6] (setting [15]), below 0.1 nM; in assay [7] (setting [16]) it was 0.027 nM. Also, the EC50 in assay [7] (setting [17]) is below 0.1 nM.

Turning to `CCC[C@H](NC(=O)OC)C(=O)N1[C@@H](C)CC[C@H]1c1ncc(-c2ccc3c(c2)COc2cc4c(ccc5nc([C@@H]6CC[C@H](C)N6C(=O)[C@H](CCC)NC(=O)OC)[nH]c54)cc2-3)[nH]1` [HA], the EC50 in assay [1] (setting [8]) is 1 to 44 nM; in assay [1] (setting [9]), 5.42 nM; in assay [2] (setting [10]) it was 0.132 nM; in assay [2] (setting [11]) it was 0.1 to 0.999 nM; in assay [3] (setting [12]), 4.12 nM; in assay [3] (setting [13]) it was 1 to 44 nM. For the same compound, the EC50 was 0.019 nM in assay [4]; 0.018 nM in assay [5]; below 0.1 nM in assay [5] (activity range); 0.028 nM in assay [6] (setting [14]); below 0.1 nM in assay [6] (setting [15]); 0.033 nM in assay [7] (setting [16]). Moreover, the EC50 in assay [7] (setting [17]) is below 0.1 nM.

In the case of `COC(=O)N[C@@H](CO)C(=O)N1[C@@H](C)CC[C@H]1c1nc2ccc3cc4c(cc3c2[nH]1)OCc1cc(-c2cnc([C@@H]3CC[C@H](C)N3C(=O)[C@@H](NC(=O)OC)C(C)C)[nH]2)ccc1-4` [GZ], the EC50 is 1 to 44 nM in assay [1] (setting [8]); 1.15 nM in assay [1] (setting [9]); 0.158 nM in assay [2] (setting [10]); 0.1 to 0.999 nM in assay [2] (setting [11]); 0.534 nM in assay [3] (setting [12]); 0.1 to 0.999 nM in assay [3] (setting [13]). Also, the EC50 was 0.045 nM in assay [4]; 0.042 nM in assay [5]; below 0.1 nM in assay [5] (activity range); 0.031 nM in assay [6] (setting [14]); below 0.1 nM in assay [6] (setting [15]); 0.019 nM in assay [7] (setting [16]). The EC50 in assay [7] (setting [17]) was below 0.1 nM.

Turning to `COC(=O)N[C@@H](C)C(=O)N1[C@@H](C)CC[C@H]1c1ncc(-c2ccc3c(c2)COc2cc4c(ccc5nc([C@@H]6CC[C@H](C)N6C(=O)[C@H](C)NC(=O)OC)[nH]c54)cc2-3)[nH]1` [HF], the EC50 in assay [1] (setting [8]) was 1 to 44 nM; in assay [1] (setting [9]), 16.3 nM; in assay [2] (setting [10]), 0.556 nM; in assay [2] (setting [11]), 0.1 to 0.999 nM; in assay [3] (setting [12]), 19.5 nM; in assay [3] (setting [13]) it was 1 to 44 nM. The EC50 in assay [4] is 0.066 nM; in assay [5] it was 0.043 nM; in assay [5] (activity range), below 0.1 nM; in assay [6] (setting [14]), 0.111 nM; in assay [6] (setting [15]), 0.1 to 0.999 nM; in assay [7] (setting [16]), 0.06 nM. Also, the EC50 in assay [7] (setting [17]) is below 0.1 nM.

For the compound `COC(=O)N[C@@H](C)C(=O)N1[C@@H](C)CC[C@H]1c1ncc(-c2ccc3c(c2)COc2cc4c(ccc5nc([C@@H]6CC[C@H](C)N6C(=O)[C@@H](NC(=O)OC)C(C)C)[nH]c54)cc2-3)[nH]1` [HL], the EC50 in assay [1] (setting [8]) is 1 to 44 nM; in assay [1] (setting [9]) it was 3.72 nM; in assay [2] (setting [10]) it was 0.127 nM; in assay [2] (setting [11]) it was 0.1 to 0.999 nM; in assay [3] (setting [12]) it was 1.43 nM; in assay [3] (setting [13]) it was 1 to 44 nM. The EC50 in assay [4] was 0.021 nM; in assay [5] it was 0.017 nM; in assay [5] (activity range), below 0.1 nM; in assay [6] (setting [14]), 0.02 nM; in assay [6] (setting [15]), below 0.1 nM; in assay [7] (setting [16]) it was 0.019 nM. Moreover, the EC50 in assay [7] (setting [17]) was below 0.1 nM.

For the origin of these results see patent US10800789B2, “Antiviral compounds” (Gilead Pharmasset LLC, priority 2012, dated 2020).
